Tests used:
[1] = system: Human immunodeficiency virus 1; assay: microbe, parasite or virus in culture; settings: Human immunodeficiency virus 1, MT2
Description: Antiviral activity against wild type HIV1 infected in human MT2 cells after 4 to 5 days by dual luciferase reporter gene assay

[2] = in vitro; settings: rat, liver microsomes
Description: Half life in rat liver microsomes at 0.5 uM after 1 hr in presence of NADPH by LC-MS/MS analysis

[3] = in vitro; settings: human, liver microsomes
Description: Half life in human liver microsomes at 0.5 uM after 1 hr in presence of NADPH by LC-MS/MS analysis

[4] = system: Human immunodeficiency virus 1; assay: microbe, parasite or virus in culture; settings: Human immunodeficiency virus 1, MT2; remark: listed apart in the source
Description: Antiviral activity against wild type HIV1 infected in human MT2 cells after 4 to 5 days in presence of 10% FBS and 40% human serum albumin by dual luciferase reporter gene assay

[5] = in vitro; settings: human, MT2 cells
Description: Cytotoxicity against human MT2 cells assessed as reduction in cell viability

[6] = system: Human immunodeficiency virus 1; assay: microbe, parasite or virus in culture; settings: Human immunodeficiency virus 1, MT2; remark: listed apart in the source
[7] = system: Human immunodeficiency virus 1; assay: microbe, parasite or virus in culture; settings: Human immunodeficiency virus 1, MT2; remark: listed apart in the source
Description: Antiviral activity against HIV1 expressing gag delta V370 mutant infected in human MT2 cells after 4 to 5 days by dual luciferase reporter gene assay

[8] = in vivo; settings: Sprague-Dawley, rat, po, 5 mg/kg
[9] = in vivo; settings: Sprague-Dawley, rat, po, 5 mg/kg; remark: listed apart in the source

SMILES	EC50 [1]	half-life at 1 h, 0.5 µM [2]	half-life at 1 h, 0.5 µM [3]	EC50 [4]	CC50 [5]	EC50 [6]	EC50 [7]	AUC(0-t) at 24 h [8]	AUC(0-t) at 6 h [9]
C=C(C)[C@@H]1CC[C@]2(NCCC3CCS(=O)(=O)CC3)CC[C@]3(C)[C@H](CC[C@@H]4[C@@]5(C)CC=C(c6ccc(C(=O)O)cc6)C(C)(C)[C@@H]5CC[C@]43C)[C@@H]12	3.7 nM	> 2 h	> 2 h	37.5 nM	4550 nM	–	–	–	–
C=C(C)[C@@H]1CC[C@]2(NCCN3CCN(S(=O)(=O)CC)CC3)CC[C@]3(C)[C@H](CC[C@@H]4[C@@]5(C)CC=C(c6ccc(C(=O)O)cc6)C(C)(C)[C@@H]5CC[C@]43C)[C@@H]12	3.7 nM	> 2 h	> 2 h	–	13400 nM	10.2 nM	19.6 nM	–	–
C=C(C)[C@@H]1CC[C@]2(NCCNC3CCN(S(C)(=O)=O)C3)CC[C@]3(C)[C@H](CC[C@@H]4[C@@]5(C)CC=C(c6ccc(C(=O)O)cc6)C(C)(C)[C@@H]5CC[C@]43C)[C@@H]12 (some centres not stated)	1.9 nM	> 2 h	> 2 h	13.7 nM	10700 nM	–	–	–	–
C=C(C)[C@@H]1CC[C@]2(C(=O)NCCN3CCS(=O)(=O)CC3)CC[C@]3(C)[C@H](CC[C@@H]4[C@@]5(C)CC=C(c6ccc(C(=O)O)cc6)C(C)(C)[C@@H]5CC[C@]43C)[C@@H]12	2.4 nM	> 2 h	> 2 h	–	7900 nM	5.5 nM	60.5 nM	2.47 µM·h	–
C=C(C)[C@@H]1CC[C@]2(NCCO)CC[C@]3(C)[C@H](CC[C@@H]4[C@@]5(C)CC=C(c6ccc(C(=O)O)cc6)C(C)(C)[C@@H]5CC[C@]43C)[C@@H]12	–	> 2 h	> 2 h	–	8480 nM	9.9 nM	66 nM	–	4.98 µM·h
C=C(C)[C@@H]1CC[C@]2(NC(=O)CN3CCS(=O)(=O)CC3)CC[C@]3(C)[C@H](CC[C@@H]4[C@@]5(C)CC=C(c6ccc(C(=O)O)cc6)C(C)(C)[C@@H]5CC[C@]43C)[C@@H]12	2.1 nM	> 2 h	> 2 h	–	9900 nM	3.5 nM	18.9 nM	–	8.74 µM·h
C=C(C)[C@@H]1CC[C@]2(NCCN3CCCCS3(=O)=O)CC[C@]3(C)[C@H](CC[C@@H]4[C@@]5(C)CC=C(c6ccc(C(=O)O)cc6)C(C)(C)[C@@H]5CC[C@]43C)[C@@H]12	4 nM	> 2 h	> 2 h	–	9530 nM	2.5 nM	36.8 nM	4.24 µM·h	–
C=C(C)[C@@H]1CC[C@]2(NC(=O)C(C)N3CCS(=O)(=O)CC3)CC[C@]3(C)[C@H](CC[C@@H]4[C@@]5(C)CC=C(c6ccc(C(=O)O)cc6)C(C)(C)[C@@H]5CC[C@]43C)[C@@H]12 (some centres not stated)	1.8 nM	> 2 h	> 2 h	–	> 10000 nM	5 nM	123 nM	–	–
C=C(C)[C@@H]1CC[C@]2(NCCN3CCN(S(=O)(=O)C(C)C)CC3)CC[C@]3(C)[C@H](CC[C@@H]4[C@@]5(C)CC=C(c6ccc(C(=O)O)cc6)C(C)(C)[C@@H]5CC[C@]43C)[C@@H]12	5.2 nM	> 2 h	> 2 h	–	11900 nM	9.9 nM	64.2 nM	–	–
C=C(C)[C@@H]1CC[C@]2(NCCN3C[C@@H]4C[C@H]3CN4S(C)(=O)=O)CC[C@]3(C)[C@H](CC[C@@H]4[C@@]5(C)CC=C(c6ccc(C(=O)O)cc6)C(C)(C)[C@@H]5CC[C@]43C)[C@@H]12	2.7 nM	> 2 h	> 2 h	–	9300 nM	2.9 nM	9.3 nM	7.08 µM·h	–
C=C(C)[C@@H]1CC[C@]2(NCCN3CC4C(C3)C4NS(C)(=O)=O)CC[C@]3(C)[C@H](CC[C@@H]4[C@@]5(C)CC=C(c6ccc(C(=O)O)cc6)C(C)(C)[C@@H]5CC[C@]43C)[C@@H]12 (some centres not stated)	2.8 nM	> 2 h	> 2 h	21.3 nM	15200 nM	–	18 nM	–	–
C=C(C)[C@@H]1CC[C@]2(NCCN3CCC4(C3)CN(S(C)(=O)=O)C4)CC[C@]3(C)[C@H](CC[C@@H]4[C@@]5(C)CC=C(c6ccc(C(=O)O)cc6)C(C)(C)[C@@H]5CC[C@]43C)[C@@H]12	1.7 nM	> 2 h	> 2 h	24.5 nM	11000 nM	–	11.4 nM	–	–
C=C(C)[C@@H]1CC[C@]2(C(=O)NCCC(=O)O)CC[C@]3(C)[C@H](CC[C@@H]4[C@@]5(C)CC=C(c6ccc(C(=O)O)cc6)C(C)(C)[C@@H]5CC[C@]43C)[C@@H]12	–	> 2 h	> 2 h	–	–	–	–	79.3 µM·h	–
C=C(C)[C@@H]1CC[C@]2(NCCN3CC4(C3)CN(S(C)(=O)=O)C4)CC[C@]3(C)[C@H](CC[C@@H]4[C@@]5(C)CC=C(c6ccc(C(=O)O)cc6)C(C)(C)[C@@H]5CC[C@]43C)[C@@H]12	1.6 nM	> 2 h	> 2 h	7.4 nM	12000 nM	–	13.3 nM	–	–
C=C(C)[C@@H]1CC[C@]2(NC(=O)CCN3CCS(=O)(=O)CC3)CC[C@]3(C)[C@H](CC[C@@H]4[C@@]5(C)CC=C(c6ccc(C(=O)O)cc6)C(C)(C)[C@@H]5CC[C@]43C)[C@@H]12	6.8 nM	> 2 h	> 2 h	–	16300 nM	11.2 nM	101 nM	–	–
C=C(C)[C@@H]1CC[C@]2(NC(=O)NCCN3CCS(=O)(=O)CC3)CC[C@]3(C)[C@H](CC[C@@H]4[C@@]5(C)CC=C(c6ccc(C(=O)O)cc6)C(C)(C)[C@@H]5CC[C@]43C)[C@@H]12	5.9 nM	> 2 h	> 2 h	–	17600 nM	4.9 nM	63.5 nM	–	–
C=C(C)[C@@H]1CC[C@]2(NC(=O)C(C(C)C)N3CCS(=O)(=O)CC3)CC[C@]3(C)[C@H](CC[C@@H]4[C@@]5(C)CC=C(c6ccc(C(=O)O)cc6)C(C)(C)[C@@H]5CC[C@]43C)[C@@H]12 (some centres not stated)	3.9 nM	> 2 h	> 2 h	–	23500 nM	7.1 nM	727 nM	–	–
C=C(C)[C@@H]1CC[C@]2(NC(=O)OCCN3CCS(=O)(=O)CC3)CC[C@]3(C)[C@H](CC[C@@H]4[C@@]5(C)CC=C(c6ccc(C(=O)O)cc6)C(C)(C)[C@@H]5CC[C@]43C)[C@@H]12	4.6 nM	> 2 h	> 2 h	–	9900 nM	10.7 nM	93.9 nM	4.97 µM·h	–
C=C(C)[C@@H]1CC[C@]2(NCCN3CCC(S(C)(=O)=O)CC3)CC[C@]3(C)[C@H](CC[C@@H]4[C@@]5(C)CC=C(c6ccc(C(=O)O)cc6)C(C)(C)[C@@H]5CC[C@]43C)[C@@H]12	1.8 nM	> 2 h	> 2 h	6.1 nM	13700 nM	2.7 nM	12 nM	–	–
C=C(C)[C@@H]1CC[C@]2(NCCNC3CCS(=O)(=O)C3)CC[C@]3(C)[C@H](CC[C@@H]4[C@@]5(C)CC=C(c6ccc(C(=O)O)cc6)C(C)(C)[C@@H]5CC[C@]43C)[C@@H]12 (some centres not stated)	2.2 nM	> 2 h	> 2 h	15.9 nM	11100 nM	3.7 nM	11.6 nM	–	–

Reference: ChEMBL document CHEMBL4152347 (J Med Chem, 2018)
